Data published in article PMC12806164, “Epithelial Heparan Sulfate Promotes Staphylococcus aureus Corneal Infection by Inhibiting Cathelicidins” (Proteoglycan research, 2025).
Where two headings read alike, the source gives them in different places.

Assays:
CRAMP [1] = test: Alexa 647-CRAMP binding to fixed S. aureus, inhibition by glycosaminoglycans (flow cytometry); set-up: species or system mouse; conditions: 0.5 μM Alexa 647-conjugated CRAMP; for Decrease of MFI of Alexa-labeled CRAMP binding to S. aureus compared to control: 5 μg/mL glycosaminoglycan, 2% paraformaldehyde-fixed S. aureus USA300, 1 h at room temperature, n = 3; for Reduction of proportion of CRAMP-bound bacteria (Alexa CRAMP binding, FACS density plots) compared to No GAG: 5 μg/ml glycosaminoglycan, fixed S. aureus USA300, 1 h at room temperature, representative plots
Description: Alexa 647-conjugated CRAMP (0.5 μM) was incubated with 2% paraformaldehyde-fixed Staphylococcus aureus USA300 without or with 5 μg/mL HP, HS, CS, DS, NDS-HP, 6ODS-HP, or 2ODS-HP for 1 h at room temperature. S. aureus-associated CRAMP fluorescence was analyzed by flow cytometry. Results are shown as % Alexa CRAMP binding (n = 3, ****p < 0.0001).
Alexa 647 fluorophore was conjugated to CRAMP using the Lightning-Link Rapid FluoProbes647H labeling kit following the manufacturer’s instructions. S. aureus USA300 fixed in 2% paraformaldehyde for 20 min was resuspended in 20 μL of phosphate buffer and incubated with 0.5 μM of Alexa 647-labeled CRAMP for 30 min at room temperature without or with glycosaminoglycans. Unbound Alexa 647-labeled CRAMP was removed by washing with phosphate buffer, and Alexa 647-labeled CRAMP bound to bacteria was assessed by flow cytometry.
(§1) Figure S1. A) CRAMP expression was measured in uninfected Wt corneas or Wt corneas isolated at 4 h post-S. aureus USA300 infection. Briefly, eyes were enucleated, corneas were dissected, and isolated corneas were incubated with 10 mg/ml dispase II overnight at 4°C to peel off the corneal epithelium. Total RNA was purified from the corneal epithelium, and 1 ng of total RNA was analyzed by qRT-PCR for CRAMP or β-actin expression (n = 3, **p < 0.01). […] Bacterial killing was measured by plating serial dilutions onto TSA plates and counting colonies the following day. Results are shown as % bacterial survival (n = 4). Figure S2. […] Bacterial killing (%) was enumerated by plating serial dilutions onto TSA plates and counting colonies the following day (n = 5). B) Effects of pre-incubating S. aureus with glycosaminoglycans on bacterial killing by cathelicidins were examined by incubating 500 cfu of USA300 without or with 5 μg/ml HS, HP, DS, or CS for 30 min at 37°C. Bacteria were washed three times with buffer, incubated with 0.5 μM CRAMP for 2 h at 37°C, and % bacterial killing was determined by plating serial dilutions of samples (n = 4). Figure S3. S. aureus USA300 stained with BaclightGreen was incubated with 0.5 μM CRAMP in the absence or presence of 5 μg/ml HP, NDS-HP, 2ODS-HP, 6ODS-HP, H, NS-H, or NS2OS-H for 30 min at room temperature. Bacteria were washed and incubated with 10 μg/ml propidium iodide for 15 min on ice. Images were captured with a fluorescence microscope (Zeiss Axiovert 40 CFL). Quantification of % dead bacteria (out of total bacteria in field) is shown at the bottom. Figure S4. Alexa 647-conjugated CRAMP (0.5 μM) was incubated with fixed S. aureus USA300 without or with 5 μg/ml of the indicated glycosaminoglycans and chemically-desulfated HP compounds for 1 h at room temperature. S. aureus-associated CRAMP fluorescence was analyzed by flow cytometry. Representative FACS density plots are shown where heparan compounds containing 2-O-sulfated motifs decreased Alexa CRAMP binding by over 79% compared to the control (No GAG), except for NDS-HP where the reduction was approximately 65%. Fig. S5. Relative mRNA levels of A) Ndst1 and B) Sdc1 in the corneal epithelium of Hs2st^fl/fl, Krt12Cre, and Hs2st^fl/fl/Krt12Cre mice (n = 3).

CRAMP [2] = test: Inhibition by glycosaminoglycans of S. aureus killing by CRAMP; assay type: cell-based, mouse; conditions: 0.5 μM CRAMP; for Inhibition of S. aureus killing by CRAMP: 5 μg/mL glycosaminoglycan, ~500 cfu USA300, phosphate buffer pH 7.4, 2 h at 37°C, n = 6
Description: (§2) Samples were plated onto TSA plates, and viable bacteria (cfu) were counted the following day. Data are shown as % bacterial killing, where killing activity in the presence of cathelicidin only represents 100% (n = 6, *p < 0.05, ****p < 0.0001, one-way ANOVA, multiple comparisons).
(§3) (A) Schematics of HS/HP structure. […] (F) BaclightGreen-labeled S. aureus (~400 cfu) was incubated with 0.5 μM CRAMP without or with 5 μg/mL HP, NDS-HP, 2ODS-HP, 6ODS-HP, H, NS-H, or NS2OS-H for 30 min at room temperature. Bacteria were washed, incubated with 10 μg/mL propidium iodide for 15 min at 4°C, and live (green) and dead (red) bacteria were visualized by fluorescence microscopy.
(§4) Late log phase S. aureus USA300 was washed with phosphate buffer (8.2 mM Na2HPO4, 1.8 mM KH2PO4, pH 7.4) and approximately 500 cfu were incubated with cathelicidins with or without excess GAGs for 2 h at 37°C as indicated. Viable bacteria were enumerated by plating onto TSA plates and counting colonies the following day. Results are shown as % bacterial killing, where 100% killing represents data derived from the group of bacteria incubated with cathelicidins only.
as §1

CAP-18 = test: Inhibition by glycosaminoglycans of S. aureus killing by CAP-18; assay type: cell-based, rabbit; conditions: 5 μg/mL glycosaminoglycan, 0.5 μM CAP-18, ~500 cfu USA300, phosphate buffer pH 7.4, 2 h at 37°C, n = 6
Description: as §2, §3, §4

SMAP-29 = test: Inhibition by glycosaminoglycans of S. aureus killing by SMAP-29; assay type: cell-based, sheep; conditions: 5 μg/mL glycosaminoglycan, 0.5 μM SMAP-29, ~500 cfu USA300, phosphate buffer pH 7.4, 2 h at 37°C, n = 6
Description: as §2, §3, §4

LL-37 = test: Inhibition by glycosaminoglycans of S. aureus killing by LL-37; assay type: cell-based, human; conditions: 5 μg/mL glycosaminoglycan, 1 μM LL-37, ~500 cfu USA300, phosphate buffer pH 7.4, 2 h at 37°C, n = 6
Description: as §2, §3, §4

S. aureus USA300 [3] = test: Pre-incubation of S. aureus with glycosaminoglycans, washing, then killing by cathelicidin; assay type: cell-based, Staphylococcus aureus; conditions: 5 μg/ml glycosaminoglycan pre-incubated with 500 cfu USA300 30 min at 37°C, washed three times, then 0.5 μM CRAMP 2 h at 37°C, n = 4
Description: Figure S1. A) CRAMP expression was measured in uninfected Wt corneas or Wt corneas isolated at 4 h post-S. aureus USA300 infection. Briefly, eyes were enucleated, corneas were dissected, and isolated corneas were incubated with 10 mg/ml dispase II overnight at 4°C to peel off the corneal epithelium. Total RNA was purified from the corneal epithelium, and 1 ng of total RNA was analyzed by qRT-PCR for CRAMP or β-actin expression (n = 3, **p < 0.01). […] Bacterial killing was measured by plating serial dilutions onto TSA plates and counting colonies the following day. Results are shown as % bacterial survival (n = 4). Figure S2. […] Bacterial killing (%) was enumerated by plating serial dilutions onto TSA plates and counting colonies the following day (n = 5). B) Effects of pre-incubating S. aureus with glycosaminoglycans on bacterial killing by cathelicidins were examined by incubating 500 cfu of USA300 without or with 5 μg/ml HS, HP, DS, or CS for 30 min at 37°C. Bacteria were washed three times with buffer, incubated with 0.5 μM CRAMP for 2 h at 37°C, and % bacterial killing was determined by plating serial dilutions of samples (n = 4). Figure S3. […] Images were captured with a fluorescence microscope (Zeiss Axiovert 40 CFL). Quantification of % dead bacteria (out of total bacteria in field) is shown at the bottom. […] S. aureus-associated CRAMP fluorescence was analyzed by flow cytometry. […]

CRAMP [4] = test: Alexa 647-CRAMP binding to Affi-Gel HP beads, competition by HP compounds (flow cytometry); set-up: species or system mouse; conditions: 20 μg/mL competitor, 0.5 μM Alexa 647-conjugated CRAMP, 1 h at room temperature, n = 4
Description: FIGURE 4 | 2-O-sulfated heparan compounds directly bind to CRAMP with high affinity. Alexa 647-conjugated CRAMP (0.5 μM) was incubated with Affi-Gel HP beads without or with 20 μg/mL of HP, NDS-HP, 2ODS-HP, or 6ODS-HP for 1 h at room temperature. CRAMP fluorescence associated with Affi-Gel HP beads was analyzed by flow cytometry. Results are shown as (A) % CRAMP binding and (B) mean fluorescence intensity (MFI) of CRAMP binding (n = 4, ***p < 0.001, ****p < 0.0001). ITC analyses for CRAMP binding to HP were performed at 25°C using a MicroCal iTC 200 titration calorimetry. The fitted heat curves of titrating CRAMP binding to (C) HP and (D) 2ODS-HP are shown.
Affi-Gel HP beads were washed and resuspended in PBS. Affi-Gel HP beads (20 μL) were incubated with 0.5 μM Alexa 647-labeled CRAMP without or with 20 μg/mL HP, chemically desulfated HP, or chemoenzymatically sulfated H for 1 h at room temperature. Affi-Gel HP beads were washed with PBS, and the Alexa 647-labeled CRAMP bound to them was assessed by flow cytometry.

S. aureus USA300 [5] = conditions: 500 cfu S. aureus USA300, 2 h at 37°C, cfu on TSA plates, n = 4
Description: Bacterial killing was measured by plating serial dilutions onto TSA plates and counting colonies the following day. Results are shown as % bacterial survival (n = 4). […] Bacterial killing (%) was enumerated by plating serial dilutions onto TSA plates and counting colonies the following day (n = 5). B) Effects of pre-incubating S. aureus with glycosaminoglycans on bacterial killing by cathelicidins were examined by incubating 500 cfu of USA300 without or with 5 μg/ml HS, HP, DS, or CS for 30 min at 37°C. Bacteria were washed three times with buffer, incubated with 0.5 μM CRAMP for 2 h at 37°C, and % bacterial killing was determined by plating serial dilutions of samples (n = 4). […] Images were captured with a fluorescence microscope (Zeiss Axiovert 40 CFL). Quantification of % dead bacteria (out of total bacteria in field) is shown at the bottom. […] S. aureus-associated CRAMP fluorescence was analyzed by flow cytometry.

[6] = ref 44 (LL-37), ref 39 (CAP-18), ref 42 (SMAP-29); cited from earlier work
Description: Next, we examined the dose response to cathelicidins from different species, which can have relatively large differences in primary sequence.

Compound | Decrease of MFI of Alexa-labeled CRAMP binding to S. aureus compared to control (CRAMP [1]) | Reduction of proportion of CRAMP-bound bacteria (Alexa CRAMP binding, FACS density plots) compared to No GAG (CRAMP [1]) | Inhibition of S. aureus killing by CRAMP (CRAMP [2]) | Inhibition of S. aureus killing by CAP-18 (CAP-18) | Inhibition of S. aureus killing by SMAP-29 (SMAP-29) | Inhibition of S. aureus killing by LL-37 (LL-37) | Inhibition of bacterial killing by cathelicidins after pre-incubation with bacteria and washing away (S. aureus USA300 [3]) | Inhibition of bacterial killing by CRAMP, titration study (CRAMP [2]; 5 μg/mL (~0.5 μM) HS, 500 cfu USA300, 2 h at 37°C, n = 5) | Inhibition of CRAMP binding to HP beads (CRAMP [4]) | S. aureus killed (S. aureus USA300 [5]; 0.5 μM peptide) | pI [6] | S. aureus killed (S. aureus USA300 [5]; 1 μM peptide)
dermatan sulfate [DS] | no effect | not | did not inhibit | 21% | did not inhibit | 27% | – | – | – | – | – | –
heparan sulfate [HS] | – | – | over 70% | over 70% | over 70% | over 70% | did not inhibit | significantly inhibited | – | – | – | –
N-desulfated HP [NDS-HP] | – | approximately 65% | did not alter the ability of HP to significantly inhibit | did not alter the ability of HP to significantly inhibit | did not alter the ability of HP to significantly inhibit | did not alter the ability of HP to significantly inhibit | – | – | over 75% | – | – | –
CAP-18 | – | – | – | – | – | – | – | – | – | Greater than 98% | 11.9 | –
CC[C@H](C)[C@H](NC(=O)[C@H](CCCCN)NC(=O)[C@H](CCC(=O)O)NC(=O)[C@H](CCCCN)NC(=O)[C@H](CO)NC(=O)[C@H](CCCCN)NC(=O)[C@H](CCCNC(=N)N)NC(=O)[C@H](Cc1ccccc1)NC(=O)[C@H](Cc1ccccc1)NC(=O)[C@H](CC(=O)O)NC(=O)CNC(=O)[C@H](CC(C)C)NC(=O)[C@@H](N)CC(C)C)C(=O)NCC(=O)N[C@@H](CCCCN)C(=O)N[C@@H](CCC(=O)O)C(=O)N[C@@H](Cc1ccccc1)C(=O)N[C@@H](CCCCN)C(=O)N[C@@H](CCCNC(=N)N)C(=O)N[C@H](C(=O)N[C@H](C(=O)N[C@@H](CCC(N)=O)C(=O)N[C@@H](CCCNC(=N)N)C(=O)N[C@H](C(=O)N[C@@H](CCCCN)C(=O)N[C@@H](CC(=O)O)C(=O)N[C@@H](Cc1ccccc1)C(=O)N[C@@H](CC(C)C)C(=O)N[C@@H](CCCNC(=N)N)C(=O)N[C@@H](CC(N)=O)C(=O)N[C@@H](CC(C)C)C(=O)N[C@H](C(=O)N1CCC[C@H]1C(=O)N[C@@H](CCCNC(=N)N)C(=O)N[C@H](C(=O)N[C@@H](CCC(=O)O)C(=O)N[C@@H](CO)C(=O)O)[C@@H](C)O)C(C)C)[C@@H](C)CC)C(C)C)[C@@H](C)CC [LL-37] | – | – | – | – | – | – | – | – | – | – | 10.5 | Greater than 98%
chondroitin sulfate A [CS] | no effect | not | no significant effect | no significant effect | no significant effect | no significant effect | – | – | – | – | – | –
heparosan | – | – | minimal effect | minimal effect | minimal effect | minimal effect | – | – | – | – | – | –
6-O-desulfated HP [6ODS-HP] | – | – | did not alter the ability of HP to significantly inhibit | did not alter the ability of HP to significantly inhibit | did not alter the ability of HP to significantly inhibit | did not alter the ability of HP to significantly inhibit | – | – | over 75% | – | – | –
